Data from patent publication US20060115492A1, “Pharmaceutical composition and health food comprising extract of Phellinus sp. PL3 or phellinsin a isolated from the same as an effective component for prevention and treatment of cardiovascular disease” (Korea Research Institute of Bioscience and Biotechnology, priority 2004, published 2006).

Columns and labels:
LDL [1] = experiment: Anti-oxidation to LDL by TBARS method (Cu2+-mediated LDL oxidation); format: biochemical, human; conditions: read-out: IC50 (anti-oxidant activity to LDL)
Experimental: The Phellinus sp. PL3 extract and the phellinsin A isolated from the same prepared as described in Examples were examined for their anti-oxidant activity to LDL as follows.
In the present invention, dialdehydes as an oxidative product of unsaturated fatty acids was measured by performing TBARS (thiobarbituric acid-reactive substances) method to investigate the anti-oxidant activities of Phellinus sp. PL3 extract and the phellinsin A isolated from Phellinus sp PL3.
300 mL of human plasma was centrifuged at 100,000×g for 24 hours with an ultracentrifuge to remove a very low density lipoprotein (VLDL)/chylomicron layer floated on the supernatant. The remaining solution was adjusted to 1.063 g/mL of gravity and centrifuged at 100,000×g for 24 hours to separate again 25 mL (1.5-2.5 mg protein/mL) of LDL floated on the supernatant. […]
Then, 10 μL of 0.25 mM CuSO4 was added to the resulting solution, reacted at 37° C. for 4 hours and added with 1 mL of 20% trichloroacetic acid (TCA) solution to stop the reaction. […] The resulting solution was centrifuged at 3,000 rpm for 5 min to separate supernatant and measured the absorbance at 540 nm with a UV-visible spectrophotometer. Finally, the amount of malondialdehyde (MDA) generated by the coloring reaction was determined.
In the experiment using Phellinus sp. […] PL3, the amount of malondialdehyde was quantified by using this standard curve.

LDL [2] = experiment: Anti-oxidant activity by monitoring conjugated dienes continuously (LDL oxidation, absorbance at 234 nm); format: biochemical, human; conditions: control lag time 44 min
Experimental: 240 μL of LDL (120 μg/mL of protein concentration) separated in Experimental Example 1 was mixed with 2,510 μL of 10 mM phosphate buffer solution and added with 10 μL of phellinsin A solution prepared in 2 kinds of concentration (2 μM and 5 μM), respectively. At this moment, the phellinsin A was utilized after dissolved in DMSO and for a negative control, only solvent was added. For a positive control, probucol was added before use.
Then, 240 μL of 0.125 mM CuSO4 was added to the resulting solution, reacted at 37° C. for 4 hours and coincidently, measured by monitoring the absorbance at 234 nm with a UV-visible spectrophotometer at 10 min intervals.

DPPH radical scavenging = format: biochemical; conditions: for Radical scavenging activity (%): 100 μM solutions in methanol; for IC50: after 35 min, read-out: IC50 (DPPH free radical scavenging)
Experimental: Phellinsin A and 1-diphenyl-2-picryl hydrazyl (DPPH) were dissolved in methanol to be adjusted to 100 μM of concentration, respectively. Then, 1 mL of phellinsin A solution was mixed with 2 mL of DPPH solution and stirred well. […]

[3] = test system: macrophage-mediated LDL oxidation (THP-1 cells); experiment: Macrophage-mediated LDL oxidation (THP-1 cells, TBARS); format: cell-based; conditions: for MDA nmol/mg LDL protein: LDL + cell + Cu2+, control 210.6 ± 10.7
Experimental: Then, the resulting cells were cultivated for 3 days and activated by using macrophages sufficiently.
Phellinsin A was dissolved in DMSO and diluted in various concentrations before used in the experiment. In order to catalyze the macrophage-mediated LDL oxidation, 2μL of 0.5 mM CuSO4 was added to the phellinsin A solution. Incubation was then carried out for 24 hours at 37° C. under a humidified atmosphere containing 5% CO2.

[4] = Acute toxicity test of oral administration in mice; format: in vivo; conditions: both sexes, ICR, mouse, in vivo, po
Experimental: (§1) In order to investigate the acute toxicity of Phellinus sp. PL3 extract or phellinsin A isolated from the same according to the present invention, the experimental procedure is performed as follows.
(§2) 4-week old specific pathogens free (SPF) ICR mice were adopted in 12 of female and 12 of male mice (3 male and female mice/dose group, respectively) and raised in a breeding room under 12 L/12 D of light kept at temperature of 22±3° C. humidity of 55±10%. The experimental mice were adapted for a week before use. Animal fodder (purchased from Cheil Feed Co. Ltd., for mice and rat uses) and water were provided after sterilized and fed freely.
(§3) The Phellinus sp. PL3 extract and phellinsin A isolated from the same prepared in Examples were made to 50 mg/mL of concentration by using 0.55% Tween 80 solvent and orally administered in 0.04 mL (100 mg/kg), 0.2 mL (500 mg/kg) and 0.4 mL (1,000 mg/kg) per 20 g of body weight. […]
(§4) In addition, the experimental mice were killed, anatomized and examined on inner organs with the naked eyes in 7 days of administration. In a day interval from the 1st day, the body weights were measured to examine whether the Phellinus sp. […]

ICR mice = experiment: Acute toxicity test of oral administration in mice; format: in vivo; conditions: oral 100, 500 and 1,000 mg/kg once, ICR mice, 7 days
Experimental: as §1, §2, §3, §4

[5] = molecular target: T1, chitin synthase 2 of Saccharomyces cerevisiae (Saccharomyces cerevisiae, UniProt P14180); conditions: J. Antibiotics, 2000, 9: 903-911; cited from earlier work
T1 sequence (P14180 1-963): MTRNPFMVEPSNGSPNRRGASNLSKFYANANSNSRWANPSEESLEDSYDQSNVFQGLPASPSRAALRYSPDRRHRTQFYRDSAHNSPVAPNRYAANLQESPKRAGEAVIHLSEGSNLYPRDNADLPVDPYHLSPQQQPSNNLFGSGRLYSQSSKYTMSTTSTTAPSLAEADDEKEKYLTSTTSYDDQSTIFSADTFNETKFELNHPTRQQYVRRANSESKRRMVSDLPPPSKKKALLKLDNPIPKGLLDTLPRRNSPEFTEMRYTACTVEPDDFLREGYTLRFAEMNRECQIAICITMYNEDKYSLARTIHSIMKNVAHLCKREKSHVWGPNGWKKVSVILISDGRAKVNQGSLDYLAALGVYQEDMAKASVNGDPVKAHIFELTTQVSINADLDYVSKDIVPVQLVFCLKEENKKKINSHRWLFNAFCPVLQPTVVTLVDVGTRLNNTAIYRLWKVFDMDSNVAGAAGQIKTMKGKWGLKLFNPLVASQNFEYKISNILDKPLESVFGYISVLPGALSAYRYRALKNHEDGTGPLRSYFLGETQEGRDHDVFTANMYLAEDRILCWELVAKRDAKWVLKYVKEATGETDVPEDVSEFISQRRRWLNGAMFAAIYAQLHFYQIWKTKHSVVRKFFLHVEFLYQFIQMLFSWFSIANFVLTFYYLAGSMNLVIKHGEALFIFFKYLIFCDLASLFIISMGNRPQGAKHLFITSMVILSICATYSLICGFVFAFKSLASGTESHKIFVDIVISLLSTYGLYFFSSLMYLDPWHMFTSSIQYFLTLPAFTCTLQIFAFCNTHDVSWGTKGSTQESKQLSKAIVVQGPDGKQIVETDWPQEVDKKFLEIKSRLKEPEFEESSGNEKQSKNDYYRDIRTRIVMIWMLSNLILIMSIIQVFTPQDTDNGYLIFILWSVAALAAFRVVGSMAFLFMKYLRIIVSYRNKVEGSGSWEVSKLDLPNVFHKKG

Row | Structure (SMILES) | IC50 (LDL [1]) | lag time (conjugated dienes) (LDL [2]; 2 μM) | lag time (conjugated dienes) (LDL [2]; 5 μM, monitored up to 240 min) | Radical scavenging activity (%) (DPPH radical scavenging; 5 min) | Radical scavenging activity (%) (DPPH radical scavenging; 10 min) | Radical scavenging activity (%) (DPPH radical scavenging; 30 min) | IC50 (DPPH radical scavenging) | MDA nmol/mg LDL protein ([3]; 1 μM) | MDA nmol/mg LDL protein ([3]; 2 μM) | MDA nmol/mg LDL protein ([3]; 5 μM) | MDA nmol/mg LDL protein ([3]; 10 μM) | anti-oxidant activity relative to probucol on macrophage-mediated LDL oxidation ([3]; 2-10 μM, times stronger than probucol) | LD50 at 7 days [4] | toxicity (clinical symptoms, deaths, body weight, blood tests, autopsy) (ICR mice) | inhibition of chitin synthase 2 [5]
1 | O=C1OC(c2ccc(O)c(O)c2)C(C(=O)O)/C1=C\c1ccc(O)c(O)c1 (stereo not shown) [Phellinsin A, phellinsin A] | 5.3 µM | 192 min | > 240 min | 55% | 87% | 92% | 1.7 µM | 167.7 ± 6.2 nmol/mg LDL protein | 94.2 ± 4.7 nmol/mg LDL protein | 55.9 ± 2.8 nmol/mg LDL protein | 39.4 ± 0.9 nmol/mg LDL protein | 2-3.7 times | ≥ 1000 mg/kg | no toxicity | highly inhibit
2 | CC(C)(Sc1cc(C(C)(C)C)c(O)c(C(C)(C)C)c1)Sc1cc(C(C)(C)C)c(O)c(C(C)(C)C)c1 [Probucol, probucol, reference compound] |  | 63 min | 70 min |  |  |  |  | 209.7 ± 1.7 nmol/mg LDL protein | 199.1 ± 10.7 nmol/mg LDL protein | 157.4 ± 2.4 nmol/mg LDL protein | 145.5 ± 3.9 nmol/mg LDL protein |  |  |  | 
3 | Cc1c(C)c2c(c(C)c1O)CCC(C)(C(=O)O)O2 (stereo not shown) [trolox, reference compound] |  |  |  |  |  |  | 18.6 µM |  |  |  |  |  |  |  | 
